# Biological target: Human recombinant protein CD73 (Homo sapiens (Human), UniProt P21589)
# Assay: CD73 enzyme activity in vitro (Malachite Green, AMP substrate)
# Type: biochemical
# Conditions: recombinant CD73, 100 μM AMP substrate solution, absorbance at 620 nm
# Method: 1. Test Method for CD73 Enzyme Activity In Vitro
# Human recombinant protein CD73 (Acro, Cat. No. CD3-H52H7) was prepared into a 0.04 ng/μL protein solution, and substrate AMP (Sigma, Cat. No. A1752-1G) was prepared into a 100 μM substrate solution. 5 μL of compounds at different concentrations were added into a 384-well white transparent bottom plate, 5 μL of 0.04 ng/μL recombinant CD73 enzyme solution was added, and the mixture was incubated at room temperature for 15 minutes. 10 μL of 100 μM substrate solution was added, the mixture was incubated at 37° C. for 40 minutes, 5 μL of Malachite Green Reagent A (R&D, Cat. No. DY996) was added, the mixture was incubated at room temperature for 10 minutes, and finally, 5 μL of Malachite Green Reagent B was added, the mixture was incubated at room temperature for 20 minutes, and a microplate reader PHERAstar FSX instrument was used to detect the absorbance at 620 nm. IC50 values were calculated using the origin9.2 software. The calculation formula of the inhibition rate was shown in Formula 1, wherein ODsample is the readout for the compound, ODnegative is the readout for the negative control without substrate, and ODpositive is the readout for the vehicle control.
# Sequence of Human recombinant protein CD73 (P21589 27-574): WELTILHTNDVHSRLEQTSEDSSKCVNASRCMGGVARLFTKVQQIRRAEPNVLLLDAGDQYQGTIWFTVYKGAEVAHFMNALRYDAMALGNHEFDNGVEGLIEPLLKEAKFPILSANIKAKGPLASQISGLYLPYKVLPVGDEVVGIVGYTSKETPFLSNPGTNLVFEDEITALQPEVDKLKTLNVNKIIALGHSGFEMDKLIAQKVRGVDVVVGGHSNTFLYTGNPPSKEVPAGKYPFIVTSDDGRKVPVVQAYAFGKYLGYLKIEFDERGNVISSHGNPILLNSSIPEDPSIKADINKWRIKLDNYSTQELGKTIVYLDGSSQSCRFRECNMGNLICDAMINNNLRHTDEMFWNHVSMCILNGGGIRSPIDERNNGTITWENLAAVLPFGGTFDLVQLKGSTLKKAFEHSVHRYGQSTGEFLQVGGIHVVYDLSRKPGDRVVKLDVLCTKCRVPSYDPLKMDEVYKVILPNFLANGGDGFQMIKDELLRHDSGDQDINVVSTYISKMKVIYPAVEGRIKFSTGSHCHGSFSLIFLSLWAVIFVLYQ
row,IC50 [nM],Structure (SMILES)
1,0.4,"O=P(O)(O)CP(=O)(O)OC[C@H]1O[C@@H](n2ncc3c(NOC4CCCC4)nc(Cl)nc32)[C@H](O)[C@@H]1O [Compound 25, (((((2R,3S,4R,5R)-5-(6-chloro-4-((cyclopentyloxy)amino)-1H-pyrazolo[3,4-d]pyrimidin-1-yl)-3,4-dihydroxytetrahydrofuran-2-yl)methoxy)(hydroxy)phosphoryl)methyl)phosphonic acid]"
2,0.3,"C[C@@]1(O)[C@@H](COP(=O)(O)CP(=O)(O)O)O[C@@H](n2ncc3c(N4C[C@H]5CCC[C@H]5C4)nc(Cl)nc32)[C@@H]1O [Compound 38, (((((2R,3S,4R,5R)-5-(6-chloro-4-((3aR,6aS)-hexahydrocyclopenta[c]pyrrol-2(1H)-yl)-1H-pyrazolo[3,4-d]pyrimidin-1-yl)-3,4-dihydroxy-3-methyltetrahydrofuran-2-yl)methoxy)(hydroxy)phosphoryl)methyl)phosphonic acid]"
3,2.6,"O=P(O)(O)CP(=O)(O)OC[C@H]1O[C@@H](n2ncc3c(N4C[C@H]5CCC[C@H]5C4)cc(Cl)nc32)[C@H](O)[C@@]1(O)CO [Compound 29, (((((2R,3S,4R,5R)-5-(6-chloro-4-((3aR,6aS)-hexahydrocyclopenta[c]pyrrol-2(1H)-yl)-1H-pyrazolo[3,4-b]pyridin-1-yl)-3,4-dihydroxy-3-(hydroxymethyl)tetrahydrofuran-2-yl)methoxy)(hydroxy)phosphoryl)methyl) phosphonic acid]"
4,1.2,"O=P(O)(O)CP(=O)(O)OC[C@H]1O[C@@H](n2ncc3c(N4C[C@H]5CCC[C@H]5C4)nc(Cl)nc32)[C@H](O)[C@@]1(O)C(F)F [Compound 33, (((((2R,3S,4R,5R)-5-(6-chloro-4-((3aR,6aS)-hexahydrocyclopenta[c]pyrrol-2(1H)-yl)-1H-pyrazolo[3,4-d]pyrimidin-1-yl)-3-(difluoromethyl)-3,4-dihydroxytetrahydrofuran-2-yl)methoxy)(hydroxy)phosphoryl)methyl)phosphonic acid]"
5,5.3,"CONc1cc(Cl)nc2c1cnn2[C@@H]1O[C@H](COP(=O)(O)CP(=O)(O)O)[C@@H](O)[C@H]1O [Compound 24, (((((2R,3S,4R,5R)-5-(6-chloro-4-(methoxyamino)-1H-pyrazolo[3,4-b]pyridin-1-yl)-3,4-dihydroxytetrahydrofuran-2-yl)methoxy)(hydroxy)phosphoryl)methyl) phosphonic acid]"
6,2.9,"CC(C)ONc1cc(Cl)nc2c1cnn2[C@@H]1O[C@H](COP(=O)(O)CP(=O)(O)O)[C@@H](O)[C@H]1O [Compound 26, (((((2R,3 S,4R,5R)-5-(6-chloro-4-(isopropoxyamino)-1H-pyrazolo[3,4-b]pyridin-1-yl)-3,4-dihydroxytetrahydrofuran-2-yl)methoxy)(hydroxy)phosphoryl)methyl)phosphonic acid]"
7,0.2,"O=P(O)(O)CP(=O)(O)OC[C@H]1O[C@@H](n2ncc3c(NOCc4ccccc4)nc(Cl)nc32)[C@H](O)[C@@H]1O [Compound 30, (((((2R,3S,4R,5R)-5-(4-((benzyloxy)amino)-6-chloro-1H-pyrazolo[3,4-d]pyrimidin-1-yl)-3,4-dihydroxytetrahydrofuran-2-yl)methoxy)(hydroxy)phosphoryl)methyl)phosphonic acid]"
8,0.9,"O=P(O)(O)CP(=O)(O)OC[C@H]1O[C@@H](n2ncc3c(N4C[C@H]5CCC[C@H]5C4)cc(Cl)nc32)[C@H](O)[C@@]1(O)C(F)F [Compound 32, (((((2R,3S,4R,5R)-5-(6-chloro-4-((3aR,6aS)-hexahydrocyclopenta[c]pyrrol-2(1H)-yl)-1H-pyrazolo[3,4-b]pyridin-1-yl)-3-(difluoromethyl)-3,4-dihydroxytetrahydrofuran-2-yl)methoxy)(hydroxy)phosphoryl)methyl)phosphonic acid]"
9,0.4,"C[C@H](Nc1cc(Cl)nc2c1cnn2[C@@H]1O[C@H](COP(=O)(O)CP(=O)(O)O)[C@](O)(CO)[C@H]1O)c1ccccc1F [Compound 12, (((((2R,3S,4R,5R)-5-(6-chloro-4-(((S)-1-(2-fluorophenyl)ethyl)amino)-1H-pyrazolo[3,4-b]pyridin-1-yl)-3,4-dihydroxy-3-(hydroxymethyl)tetrahydrofuran-2-yl)methoxy)(hydroxy)phosphoryl)methyl)phosphonic acid]"
10,1.8,"CONc1nc(Cl)nc2c1cnn2[C@@H]1O[C@H](COP(=O)(O)CP(=O)(O)O)[C@@H](O)[C@H]1O [Compound 18, (((((2R,3S,4R,5R)-5-(6-chloro-4-(methoxyamino)-1H-pyrazolo[3,4-d]pyrimidin-1-yl)-3,4-dihydroxytetrahydrofuran-2-yl)methoxy)(hydroxy)phosphoryl)methyl)phosphonic acid]"
11,0.06,"C#C[C@@]1(O)[C@@H](COP(=O)(O)CP(=O)(O)O)O[C@@H](n2ncc3c(N4C[C@H]5CCC[C@H]5C4)nc(Cl)nc32)[C@@H]1O [Compound 40, (((((2R,3S,4R,5R)-5-(6-chloro-4-((3aR,6aS)-hexahydrocyclopenta[c]pyrrol-2(1H)-yl)-1H-pyrazolo[3,4-d]pyrimidin-1-yl)-3-ethynyl-3,4-dihydroxytetrahydrofuran-2-yl)methoxy)(hydroxy)phosphoryl)methyl)phosphonic acid]"
12,0.7,"O=P(O)(O)CP(=O)(O)OC[C@H]1O[C@@H](n2ncc3c(N4C[C@H]5CCC[C@H]5C4)nc(Cl)nc32)[C@H](O)[C@@]1(O)CO [Compound 28, (((((2R,3S,4R,5R)-5-(6-chloro-4-((3aR,6aS)-hexahydrocyclopenta[c]pyrrol-2(1H)-yl)-1H-pyrazolo[3,4-d]pyrimidin-1-yl)-3,4-dihydroxy-3-(hydroxymethyl)tetrahydrofuran-2-yl)methoxy)(hydroxy)phosphoryl)methyl)phosphonic acid]"
13,1.7,"CC(C)ONc1nc(Cl)nc2c1cnn2[C@@H]1O[C@H](COP(=O)(O)CP(=O)(O)O)[C@@H](O)[C@H]1O [Compound 27, (((((2R,3S,4R,5R)-5-(6-chloro-4-(isopropoxyamino)-1H-pyrazolo[3,4-d]pyrimidin-1-yl)-3,4-dihydroxytetrahydrofuran-2-yl)methoxy)(hydroxy)phosphoryl)methyl)phosphonic acid]"
14,0.7,"O=P(O)(O)CP(=O)(O)OC[C@H]1O[C@H](n2ncc3c(N4C[C@H]5CCC[C@H]5C4)nc(Cl)nc32)[C@H](O)[C@@]1(O)CO [Compound 31, (((((2R,3S,4R,5S)-5-(6-chloro-4-((3aR,6aS)-hexahydrocyclopenta[c]pyrrol-2(1H)-yl)-1H-pyrazolo[3,4-d]pyrimidin-1-yl)-3,4-dihydroxy-3-(hydroxymethyl)tetrahydrofuran-2-yl)methoxy)(hydroxy)phosphoryl)methyl)phosphonic acid]"

# Test system: B16F10 xenograft tumor
# Assay: B16F10 xenograft tumor model in vivo
# Design: species or system mouse
# Conditions: 30 mg/kg, single agent
# Method: B16F10 Xenograft Tumor Model In Vivo
# B16F10 cells were purchased from ATCC, the cell medium was DMEM+10% FBS+1% double antibody, and the cells were cultured in an incubator at 37° C. under 5% CO2. After the cells had grown to a number sufficient for inoculation, the cells were harvested. The cell-containing culture solution was transferred to a 50 mL sterile centrifuge tube, and centrifuged at 1500 rpm for 3 minutes. The centrifuge tube was taken out after centrifugation, and the supernatant was discarded. The cells were resuspended in a pre-cooled PBS and centrifuged at 1500 rpm for 3 minutes, and after centrifugation, the supernatant was discarded; the process was repeated twice. Finally, the cells were resuspended in a pre-cooled PBS. After counting, the cells were diluted to 1×10^6 cells/mL with a pre-cooled PBS. […] The second day of inoculation was recorded as Day 0, and compound 28 (the vehicle was phosphate buffer saline) was given by intragastric administration every day after randomization, and animals in both the group with the anti-PD-1 antibody (anti-PD-1; BioXcell, Cat. CD279) and the group with combined drugs were injected intraperitoneally with the anti-PD-1 antibody (twice a week). The long and short diameters of the tumors were measured with an electronic vernier caliper, and the body weight of the animals was recorded. […]
row,Structure (SMILES),TGI % (day 15) [%]
1,"C[C@H](Nc1cc(Cl)nc2c1cnn2[C@@H]1O[C@H](COP(=O)(O)CP(=O)(O)O)[C@@H](O)[C@H]1O)c1ccccc1F [AB680, reference compound]",57.96

# Same assay, conditions: 100 mg/kg, intragastric administration every day, single agent
row,Structure (SMILES),TGI % (day 15) [%]
1,"O=P(O)(O)CP(=O)(O)OC[C@H]1O[C@@H](n2ncc3c(N4C[C@H]5CCC[C@H]5C4)nc(Cl)nc32)[C@H](O)[C@@]1(O)CO [Compound 28, (((((2R,3S,4R,5R)-5-(6-chloro-4-((3aR,6aS)-hexahydrocyclopenta[c]pyrrol-2(1H)-yl)-1H-pyrazolo[3,4-d]pyrimidin-1-yl)-3,4-dihydroxy-3-(hydroxymethyl)tetrahydrofuran-2-yl)methoxy)(hydroxy)phosphoryl)methyl)phosphonic acid]",50.12

# From patent US20240368204A1, “SMALL MOLECULAR CD73 ANTAGONIST AND USE THEREOF” (XIZANG HAISCO PHARMACEUTICAL CO., LTD., priority 2021, published 2024)
